Key:
[1] = tested on: pooled human liver S9 fraction (pHLS9) and HepaRG cells; experiment: In vitro metabolism by pHLS9 and HepaRG cells (LC-HRMS/MS metabolite identification); assay type: in vitro ADME; settings: 25 µM substrate
[2] = In vitro plasma protein binding (ultrafiltration, Centrifree); assay type: in vitro ADME; settings: human, pooled human blood plasma, 30 min, 37 °C, ultrafiltration, read-out: fu (unbound fraction)
Method: (§1) PPB was investigated according to a previous study with minor modifications (Kroesen et al. [2025]). Fresh and pooled human blood plasma (450 µL) was spiked with 50 µL of a 5 µM methanolic solution of 4MeO-NE-BP, 4MeO-αP-BP, 4MeO-αP-VP, 4MeS-NE-BP, 4MeS-αP-BP, or 4MeS-αMor-PrP. The mixture was incubated for 30 min at 37 °C and with gentle shaking at 200 rpm. […] The Centrifree devices were centrifuged for 35 min at 1600 × g to obtain 100 µL of the ultrafiltrate (UF). […] Experiments were performed in quadruplicate. Fraction unbound (fu) and PPB were determined by comparing the area ratios of the compound and trimipramine-d3 as an internal standard in the UF and GA using the following equations:1 fu=peak area ratiocompoundUF/ISUF/peak area ratiocompoundGA/ISGA 2 PPB[\%]=1-fu∗100.

[3] = tested on: plasma proteins (pooled human blood plasma); experiment: as above; assay type: in vitro ADME
Method: as §1

[4] = tested on: dopamine and serotonin transporters; set-up: method as in Wojcieszak et al. [2021]; settings: ref Wojcieszak et al. [2021]; cited from earlier work
[5] = tested on: pooled human liver S9 fraction (pHLS9); experiment: Incubations using pooled human liver S9 fraction; settings: 25 µM parent, 60 and 360 min
Method: In short, 25 μg/mL alamethicin (UGT reaction mix B), pHLS9 (2 mg microsomal protein/mL), 2.5 mM isocitrate, 0.8 U/mL isocitrate dehydrogenase, 100 U/mL superoxide dismutase, 0.6 mM NADP^+, and 2.5 mM Mg^2+ were preincubated for 10 min at 37 °C. Then, 2.5 mM UDP-glucuronic acid (UGT reaction mix A), 40 µM PAPS, 1.2 mM SAM, 1 mM DTT, and 10 mM GSH were added. The reaction was started by adding the substrate (25 µM each, final), resulting in a final incubation volume of 150 µL. MDMA or quetiapine (25 µM and 250 µM final concentrations) was incubated as positive controls. […] Incubations were performed in triplicate and organic solvent in the incubation mixture was below 1% (Chauret et al. [1998]). After an incubation time of 60 and 360 min, aliquots (50 µL) were transferred to a new reaction tube. The reaction was stopped with 30 µL acetonitrile (−20 °C) containing 2.5 µM trimipramine-d3 as an internal standard. Samples were vortexed, stored at −20 °C for 30 min, and centrifuged for 2 min at 18,407 × g. 70 µL of the supernatant were transferred to autosampler vials and 5 µL was injected onto the LC–HRMS/MS system.

HepaRG cells = experiment: Incubations using HepaRG cells; settings: 25 µM parent, 24 h
Method: Cell incubations were performed in a monolayer assay (Kroesen et al. [2025]) and in accordance with the manufacturer’s instructions.
All incubations were performed in triplicate, with each well containing 0.5% (v/v) DMSO. Following incubation, 50 µL of the medium supernatant was transferred to a new reaction tube and precipitated with 30 µL of acetonitrile cooled to −20 °C, containing 2.5 µM trimipramine-d3 as an internal standard. […] The mixture was vortexed and centrifuged for 2 min at 18,407 × g. A volume of 70 µL of the supernatant was transferred into an autosampler vial and 5 µL was injected onto the LC–HRMS/MS system.
HepaRG cells were thawed and resuspended in 13.5 mL (~ 740,000 cells/mL) thaw
and seed medium at 37 °C. Thaw and seed medium consisted of Williams E medium,
100 U/mL penicillin, 100 µg/mL streptomycin, GlutaMAX, and HPRG670 supplement.
Cells were handled under sterile conditions using a laminar flow bench class II (Thermo
Scientific, TF, Schwerte, Germany). Aliquots of 100 µL cell suspension were seeded
on collagen-coated 96-well plates (~ 74,000 cells/well). Evaporation was minimized by
filling the outer wells with 100 µL thaw and seed medium. Cells were preincubated for
4 h in an incubator (Binder, Tuttlingen, Germany) at 37 °C, 95 % air humidity, and 5 %
CO2. After preincubation, 50 µL of the thaw and seed medium was replaced with 50 µL
solution of each cathinone (25 µM) in thaw and seed medium, followed by an
incubation for 24 h at 37 °C, 95 % air humidity, and 5 % CO2 atmosphere.
A Thermo Fisher ( TF, Dreieich, Germany) Dionex UltiMate 3000 RS pump consisting
of a degasser, a quaternary pump, and an autosampler, coupled to a TF Q Exactive
Plus system equipped with a heated electrospray ionization (HESI)-II source were
used. A mass calibration was done according to the manufacturer's recommendations
using external mass calibration prior to analysis. Gradient elution was performed on a
TF Accucore PhenylHexyl column (100 mm x 2.1 mm, 2.6 μm) with a 2 mM aqueous
ammonium formate solution containing 0.1 % (v/v) formic acid (pH 3, eluent A) and 2
mM ammonium formate solution in acetonitrile/methanol (50:50, v/v) containing 0.1 %
(v/v) formic acid, and 1 % (v/v) water (eluent B). The gradient was stepped as follows:
hold 99 % A. Initial flow rate from 0–9.5 min was 500 μL/min and final flow rate was
800 μL/min from 9.5–11.5 min. Mass spectrometry was performed using full scan data
and a subsequent data-dependent acquisition (DDA) with priority to mass-to-charge
ratios (m/z) of parent compounds and their expected metabolites. The inclusion list
contained m/z values of likely formed metabolites such as O- or S-desmethyl, hydroxy,
and oxo reduction metabolites (phase I) as well as sulfates, glucuronides (phase II),
and combinations thereof.
TF Xcalibur Qual Browser software […]

CYP3A4 = biological target: T1, CYP3A4 (Homo sapiens, UniProt P08684); experiment: Monooxygenases activity screening, CYP3A4; assay type: in vitro ADME; set-up: key: +, detected; -, not detected; settings: substrate 4MeS-NE-BP 25 µM, 30 min, 37 °C; Table S3.4
T1 construct: purchased Discovery Life Sciences (Huntsville, LA, USA); host or cells: baculovirus-infected insect cells (microsomes, Supersomes)
T1 sequence (P08684 whole entry): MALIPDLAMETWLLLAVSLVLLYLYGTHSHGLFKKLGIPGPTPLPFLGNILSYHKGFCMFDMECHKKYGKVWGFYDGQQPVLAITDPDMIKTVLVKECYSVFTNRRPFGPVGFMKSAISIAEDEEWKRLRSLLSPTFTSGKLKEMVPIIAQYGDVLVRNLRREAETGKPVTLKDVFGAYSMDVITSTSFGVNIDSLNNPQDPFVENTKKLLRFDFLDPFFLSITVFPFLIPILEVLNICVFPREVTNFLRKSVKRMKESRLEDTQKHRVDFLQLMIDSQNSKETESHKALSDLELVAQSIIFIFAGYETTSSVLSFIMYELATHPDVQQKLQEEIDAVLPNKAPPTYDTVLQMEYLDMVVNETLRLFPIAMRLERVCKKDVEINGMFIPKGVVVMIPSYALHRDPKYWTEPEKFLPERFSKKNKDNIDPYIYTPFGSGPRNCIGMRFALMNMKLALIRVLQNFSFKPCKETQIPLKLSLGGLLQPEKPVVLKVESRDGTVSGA
Method: (§2) For incubations with CYP2A6 or CYP2C9, phosphate buffer was replaced with 90 mM Tris buffer, according to the manufacturer’s guideline. […] All incubations were done in duplicate and concentrations were fixed. Verapamil (25 µM) was incubated as a positive control.

CYP2B6 = biological target: T2, CYP2B6 (Homo sapiens, UniProt P20813); experiment: Monooxygenases activity screening, CYP2B6; assay type: in vitro ADME; set-up: key: +, detected; -, not detected; settings: substrate 4MeS-NE-BP 25 µM, 30 min, 37 °C; Table S3.4
T2 construct: purchased Discovery Life Sciences (Huntsville, LA, USA); host or cells: baculovirus-infected insect cells (microsomes, Supersomes)
T2 sequence (P20813 1-491): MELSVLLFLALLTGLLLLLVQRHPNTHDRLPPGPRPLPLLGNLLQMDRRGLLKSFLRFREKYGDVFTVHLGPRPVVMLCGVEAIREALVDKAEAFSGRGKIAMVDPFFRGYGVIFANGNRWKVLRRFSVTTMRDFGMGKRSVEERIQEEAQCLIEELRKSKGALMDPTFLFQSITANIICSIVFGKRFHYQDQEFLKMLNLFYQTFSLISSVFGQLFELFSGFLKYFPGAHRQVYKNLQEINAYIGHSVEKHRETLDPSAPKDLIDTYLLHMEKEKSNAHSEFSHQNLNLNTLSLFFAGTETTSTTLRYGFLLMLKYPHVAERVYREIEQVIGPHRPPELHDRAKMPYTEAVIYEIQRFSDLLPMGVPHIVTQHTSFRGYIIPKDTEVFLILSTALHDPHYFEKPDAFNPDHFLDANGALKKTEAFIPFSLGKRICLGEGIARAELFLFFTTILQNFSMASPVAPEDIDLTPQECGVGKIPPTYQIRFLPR
Method: as §2

CYP3A5 = biological target: T3, CYP3A5 (Homo sapiens, UniProt P20815); experiment: Monooxygenases activity screening, CYP3A5; assay type: in vitro ADME; set-up: key: +, detected; -, not detected; settings: substrate 4MeS-NE-BP 25 µM, 30 min, 37 °C; Table S3.4
T3 construct: purchased Discovery Life Sciences (Huntsville, LA, USA); host or cells: baculovirus-infected insect cells (microsomes, Supersomes)
T3 sequence (P20815 whole entry): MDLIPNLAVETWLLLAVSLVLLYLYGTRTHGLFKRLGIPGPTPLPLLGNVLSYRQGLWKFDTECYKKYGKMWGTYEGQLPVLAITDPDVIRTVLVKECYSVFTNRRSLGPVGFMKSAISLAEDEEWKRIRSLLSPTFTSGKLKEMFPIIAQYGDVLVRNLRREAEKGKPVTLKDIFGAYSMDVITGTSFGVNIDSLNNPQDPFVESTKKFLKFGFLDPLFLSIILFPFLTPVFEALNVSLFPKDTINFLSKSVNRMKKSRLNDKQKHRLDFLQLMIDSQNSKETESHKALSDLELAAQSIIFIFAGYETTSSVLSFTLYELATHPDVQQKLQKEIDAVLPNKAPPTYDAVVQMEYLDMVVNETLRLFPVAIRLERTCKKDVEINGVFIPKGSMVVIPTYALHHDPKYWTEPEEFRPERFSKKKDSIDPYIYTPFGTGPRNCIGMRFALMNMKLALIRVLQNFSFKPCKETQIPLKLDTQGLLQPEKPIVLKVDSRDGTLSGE
Method: as §2

CYP2C19 = biological target: T4, CYP2C19 (Homo sapiens, UniProt P33261); experiment: Monooxygenases activity screening, CYP2C19; assay type: in vitro ADME; set-up: key: +, detected; -, not detected; settings: substrate 4MeS-NE-BP 25 µM, 30 min, 37 °C; Table S3.4
T4 construct: purchased Discovery Life Sciences (Huntsville, LA, USA); host or cells: baculovirus-infected insect cells (microsomes, Supersomes)
T4 sequence (P33261 whole entry): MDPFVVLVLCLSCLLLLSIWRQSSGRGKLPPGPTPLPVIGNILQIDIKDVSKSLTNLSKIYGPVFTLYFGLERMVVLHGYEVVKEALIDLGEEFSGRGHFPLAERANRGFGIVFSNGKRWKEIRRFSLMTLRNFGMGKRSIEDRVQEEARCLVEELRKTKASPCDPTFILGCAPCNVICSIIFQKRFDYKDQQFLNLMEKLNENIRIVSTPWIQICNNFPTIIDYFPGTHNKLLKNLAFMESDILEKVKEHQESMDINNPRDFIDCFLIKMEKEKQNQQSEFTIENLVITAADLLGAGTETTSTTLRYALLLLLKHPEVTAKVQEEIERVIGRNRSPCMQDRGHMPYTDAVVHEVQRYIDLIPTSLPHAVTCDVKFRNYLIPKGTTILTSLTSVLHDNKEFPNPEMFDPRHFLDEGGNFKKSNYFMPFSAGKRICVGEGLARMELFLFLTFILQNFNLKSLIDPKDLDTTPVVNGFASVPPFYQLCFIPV
Method: as §2

CYP2D6 = biological target: T5, CYP2D6 (Homo sapiens, UniProt P10635); experiment: Monooxygenases activity screening, CYP2D6; assay type: in vitro ADME; set-up: key to one-step metabolite detected in CYP2D6 incubation: +, detected; -, not detected; settings: substrate 4MeS-NE-BP 25 µM, 30 min, 37 °C; Table S3.4
T5 construct: purchased Discovery Life Sciences (Huntsville, LA, USA); host or cells: baculovirus-infected insect cells (microsomes, Supersomes)
T5 sequence (P10635 whole entry): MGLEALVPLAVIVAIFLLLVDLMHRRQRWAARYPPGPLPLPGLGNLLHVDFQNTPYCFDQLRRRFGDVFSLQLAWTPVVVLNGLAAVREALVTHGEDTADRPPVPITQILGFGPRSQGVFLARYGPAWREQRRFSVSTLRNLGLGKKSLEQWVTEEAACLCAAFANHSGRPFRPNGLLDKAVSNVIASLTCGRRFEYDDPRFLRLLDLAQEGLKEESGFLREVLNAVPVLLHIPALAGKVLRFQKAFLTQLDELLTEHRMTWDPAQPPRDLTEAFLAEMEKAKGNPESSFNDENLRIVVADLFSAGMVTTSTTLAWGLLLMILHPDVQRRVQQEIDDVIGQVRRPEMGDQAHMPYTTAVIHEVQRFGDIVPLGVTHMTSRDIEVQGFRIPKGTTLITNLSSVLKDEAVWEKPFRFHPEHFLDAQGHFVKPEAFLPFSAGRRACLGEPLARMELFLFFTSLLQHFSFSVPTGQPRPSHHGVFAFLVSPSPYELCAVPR
Method: as §2

CYP2C9 = biological target: T6, CYP2C9 (Homo sapiens, UniProt P11712); experiment: Monooxygenases activity screening, CYP2C9; assay type: in vitro ADME; set-up: key: +, detected; -, not detected; settings: substrate 4MeS-NE-BP 25 µM, 30 min, 37 °C; Table S3.4
T6 construct: purchased Discovery Life Sciences (Huntsville, LA, USA); host or cells: baculovirus-infected insect cells (microsomes, Supersomes)
T6 sequence (P11712 whole entry): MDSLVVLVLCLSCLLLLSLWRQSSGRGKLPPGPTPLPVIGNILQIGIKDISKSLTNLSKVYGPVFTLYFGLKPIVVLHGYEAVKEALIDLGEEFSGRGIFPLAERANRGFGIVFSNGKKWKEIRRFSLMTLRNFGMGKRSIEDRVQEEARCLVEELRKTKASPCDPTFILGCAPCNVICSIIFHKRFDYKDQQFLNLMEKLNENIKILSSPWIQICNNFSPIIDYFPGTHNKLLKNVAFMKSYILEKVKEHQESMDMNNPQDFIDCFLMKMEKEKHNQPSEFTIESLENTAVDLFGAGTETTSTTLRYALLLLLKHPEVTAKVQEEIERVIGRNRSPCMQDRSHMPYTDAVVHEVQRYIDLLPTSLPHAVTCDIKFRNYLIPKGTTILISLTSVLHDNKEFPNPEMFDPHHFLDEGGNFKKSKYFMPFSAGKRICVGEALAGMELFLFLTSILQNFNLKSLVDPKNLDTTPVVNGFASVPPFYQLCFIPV
Method: as §2

[6] = biological target: T7, flavin-containing monooxygenase 3 (FMO3) (Homo sapiens, UniProt P31513); experiment: Monooxygenases activity screening, FMO3; assay type: in vitro ADME; set-up: key: +, detected; -, not detected; settings: substrate 4MeS-NE-BP 25 µM, 30 min, 37 °C; Table S3.4
T7 construct: purchased Discovery Life Sciences (Huntsville, LA, USA); host or cells: baculovirus-infected insect cells (microsomes, Supersomes)
T7 sequence (P31513 1-532): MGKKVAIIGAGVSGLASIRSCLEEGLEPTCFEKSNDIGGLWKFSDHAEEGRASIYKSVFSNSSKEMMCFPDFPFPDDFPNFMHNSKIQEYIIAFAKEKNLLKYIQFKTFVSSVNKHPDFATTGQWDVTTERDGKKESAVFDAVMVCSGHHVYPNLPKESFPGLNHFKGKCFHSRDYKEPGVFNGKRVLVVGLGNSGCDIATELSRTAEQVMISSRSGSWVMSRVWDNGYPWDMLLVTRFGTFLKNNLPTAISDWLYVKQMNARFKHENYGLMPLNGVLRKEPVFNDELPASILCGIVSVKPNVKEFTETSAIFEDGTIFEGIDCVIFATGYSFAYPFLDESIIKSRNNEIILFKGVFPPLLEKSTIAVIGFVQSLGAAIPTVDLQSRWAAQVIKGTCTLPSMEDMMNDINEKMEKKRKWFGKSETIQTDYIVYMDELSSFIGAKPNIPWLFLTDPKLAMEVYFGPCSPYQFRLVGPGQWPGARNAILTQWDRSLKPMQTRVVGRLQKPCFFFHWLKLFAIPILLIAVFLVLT
Method: as §2

CYP2C8 = biological target: T8, CYP2C8 (Homo sapiens, UniProt P10632); experiment: Monooxygenases activity screening, CYP2C8; assay type: in vitro ADME; set-up: key: +, detected; -, not detected; settings: substrate 4MeS-NE-BP 25 µM, 30 min, 37 °C; Table S3.4
T8 construct: purchased Discovery Life Sciences (Huntsville, LA, USA); host or cells: baculovirus-infected insect cells (microsomes, Supersomes)
T8 sequence (P10632 1-490): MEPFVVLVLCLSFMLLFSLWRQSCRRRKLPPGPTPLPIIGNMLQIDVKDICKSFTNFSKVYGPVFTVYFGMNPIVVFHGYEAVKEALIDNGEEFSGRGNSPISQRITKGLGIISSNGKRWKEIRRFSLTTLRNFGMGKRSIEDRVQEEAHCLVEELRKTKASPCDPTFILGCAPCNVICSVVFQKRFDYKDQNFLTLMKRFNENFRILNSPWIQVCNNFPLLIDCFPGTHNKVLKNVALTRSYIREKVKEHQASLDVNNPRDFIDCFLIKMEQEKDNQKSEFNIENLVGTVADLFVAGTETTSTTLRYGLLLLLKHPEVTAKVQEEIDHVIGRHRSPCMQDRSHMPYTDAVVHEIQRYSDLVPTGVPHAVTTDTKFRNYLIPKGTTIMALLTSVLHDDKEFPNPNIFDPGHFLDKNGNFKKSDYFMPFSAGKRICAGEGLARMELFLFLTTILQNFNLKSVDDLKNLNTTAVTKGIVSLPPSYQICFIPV
Method: as §2

CYP1A2 = biological target: T9, CYP1A2 (Homo sapiens, UniProt P05177); experiment: Monooxygenases activity screening, CYP1A2; assay type: in vitro ADME; set-up: key: +, detected; -, not detected; settings: substrate 4MeS-NE-BP 25 µM, 30 min, 37 °C; Table S3.4
T9 construct: purchased Discovery Life Sciences (Huntsville, LA, USA); host or cells: baculovirus-infected insect cells (microsomes, Supersomes)
T9 sequence (P05177 1-516): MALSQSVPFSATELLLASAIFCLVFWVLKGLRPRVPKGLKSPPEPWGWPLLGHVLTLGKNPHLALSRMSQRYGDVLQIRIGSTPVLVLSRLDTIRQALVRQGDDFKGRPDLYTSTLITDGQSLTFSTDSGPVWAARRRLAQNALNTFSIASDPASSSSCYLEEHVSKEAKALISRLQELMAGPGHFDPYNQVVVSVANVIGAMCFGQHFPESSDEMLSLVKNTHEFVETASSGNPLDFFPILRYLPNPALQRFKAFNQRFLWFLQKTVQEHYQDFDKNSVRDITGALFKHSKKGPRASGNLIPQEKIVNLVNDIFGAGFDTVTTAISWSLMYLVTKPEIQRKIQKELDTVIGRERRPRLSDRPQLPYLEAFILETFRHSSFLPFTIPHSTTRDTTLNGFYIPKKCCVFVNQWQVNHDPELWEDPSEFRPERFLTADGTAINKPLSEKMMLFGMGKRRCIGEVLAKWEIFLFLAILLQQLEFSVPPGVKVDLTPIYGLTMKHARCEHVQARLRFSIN
Method: as §2

CYP2A6 = biological target: T10, CYP2A6 (Homo sapiens, UniProt P11509); experiment: Monooxygenases activity screening, CYP2A6; assay type: in vitro ADME; set-up: key: +, detected; -, not detected; settings: substrate 4MeS-NE-BP 25 µM, 30 min, 37 °C; Table S3.4
T10 construct: purchased Discovery Life Sciences (Huntsville, LA, USA); host or cells: baculovirus-infected insect cells (microsomes, Supersomes)
T10 sequence (P11509 1-494): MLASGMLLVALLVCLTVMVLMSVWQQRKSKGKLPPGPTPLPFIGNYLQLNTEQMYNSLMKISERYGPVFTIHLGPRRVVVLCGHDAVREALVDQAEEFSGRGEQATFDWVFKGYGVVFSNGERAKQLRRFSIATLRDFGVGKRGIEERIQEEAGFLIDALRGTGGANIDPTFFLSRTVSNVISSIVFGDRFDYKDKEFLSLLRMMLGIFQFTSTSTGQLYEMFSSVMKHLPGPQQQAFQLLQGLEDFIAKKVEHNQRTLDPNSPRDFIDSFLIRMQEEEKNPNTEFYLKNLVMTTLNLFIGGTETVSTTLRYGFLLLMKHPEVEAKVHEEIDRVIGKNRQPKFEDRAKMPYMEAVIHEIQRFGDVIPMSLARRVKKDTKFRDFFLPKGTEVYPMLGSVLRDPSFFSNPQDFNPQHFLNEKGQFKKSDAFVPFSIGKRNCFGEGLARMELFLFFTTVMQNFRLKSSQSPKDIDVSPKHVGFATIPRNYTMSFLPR
Method: as §2

CYP2E1 = biological target: T11, CYP2E1 (Homo sapiens, UniProt P05181); experiment: Monooxygenases activity screening, CYP2E1; assay type: in vitro ADME; set-up: key: +, detected; -, not detected; settings: substrate 4MeS-NE-BP 25 µM, 30 min, 37 °C; Table S3.4
T11 construct: purchased Discovery Life Sciences (Huntsville, LA, USA); host or cells: baculovirus-infected insect cells (microsomes, Supersomes)
T11 sequence (P05181 whole entry): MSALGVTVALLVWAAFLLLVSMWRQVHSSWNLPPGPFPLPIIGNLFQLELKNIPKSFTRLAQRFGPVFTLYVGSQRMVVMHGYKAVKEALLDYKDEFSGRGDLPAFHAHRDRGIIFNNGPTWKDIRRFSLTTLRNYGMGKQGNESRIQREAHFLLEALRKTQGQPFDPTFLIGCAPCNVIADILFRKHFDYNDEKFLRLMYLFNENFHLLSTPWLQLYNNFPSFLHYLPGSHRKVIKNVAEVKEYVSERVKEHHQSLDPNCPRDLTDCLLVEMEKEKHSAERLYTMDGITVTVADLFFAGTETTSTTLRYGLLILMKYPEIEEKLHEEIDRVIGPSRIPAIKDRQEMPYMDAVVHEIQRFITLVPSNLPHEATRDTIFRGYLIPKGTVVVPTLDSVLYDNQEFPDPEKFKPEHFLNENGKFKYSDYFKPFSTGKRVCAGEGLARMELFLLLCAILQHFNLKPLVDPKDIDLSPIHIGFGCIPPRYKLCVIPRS
Method: as §2

SMILES	Phase II metabolism [1]	metabolic reactions (metabolite IDs) identified [1]	number of metabolites tentatively identified [1]	fraction unbound at 30 min, 0.5 µM [2]	Plasma protein binding, class in words [3]	PPB, % ([3]; 30 min, 37 °C, ultrafiltration) [%]	monoamine uptake inhibition, relative potency at transporters [4]	metabolite detection in pHLS9 [5]	metabolite detection in HepaRG incubations (HepaRG cells)	one-step metabolite detected in CYP3A4 incubation (CYP3A4)	one-step metabolite detected in CYP2B6 incubation (CYP2B6)	one-step metabolite detected in CYP3A5 incubation (CYP3A5)	one-step metabolite detected in CYP2C19 incubation (CYP2C19)	one-step metabolite detected in CYP2D6 incubation (CYP2D6)	one-step metabolite detected in CYP2C9 incubation (CYP2C9)	one-step metabolite detected in FMO3 incubation [6]	one-step metabolite detected in CYP2C8 incubation (CYP2C8)	one-step metabolite detected in CYP1A2 incubation (CYP1A2)	one-step metabolite detected in CYP2A6 incubation (CYP2A6)	one-step metabolite detected in CYP2E1 incubation (CYP2E1)
CCCC(C(=O)c1ccc(OC)cc1)N1CCCC1 (stereo not drawn) [Compound 4MeO-αP-VP, 4’-methoxy-α-pyrrolidinovalerophenone]	O-sulfation (MO3.9) and O-glucuronidation (MO3.10) after O-demethylation	hydroxylation (MO3.1, MO3.3), O-demethylation (MO3.2), N-oxidation (MO3.4), lactam formation (MO3.5), O-demethylation + aromatic hydroxylation (MO3.6), hydroxylation + N-oxidation (MO3.7), and O-demethylation + dihydroxylation at the pyrrolidine ring (MO3.8)	10	0.39	moderate	61	greater potency in dopamine than serotonin transporters													
CCCC(C(=O)c1ccc(OC2OC(C(=O)O)C(O)C(O)C2O)cc1)N1CCCC1 (stereo not drawn) [MO3.10]								could not be detected	observed in HepaRG incubations											
CCC(C(=O)c1ccc(SC)cc1)N(O)CC (stereo not drawn) [MT1.4]									only detected in HepaRG incubations	+	-	+	-	+	-	+	-	+	-	-

From paper PMC12858467, “In vitro toxicokinetics and metabolic profiling of methoxycathinones and methylthiocathinones using human liver systems and hyphenated mass spectrometry” (Archives of Toxicology, 2025)
